PMC11969438 (Inorganic Chemistry Frontiers, 2025)

Key:
[1] = Hematological analysis after long-term treatment; conditions: 72 h after the fourth dose
Procedure: Mice were kept in groups of four per cage with sterilized paper-based environmental enrichment and food and water ad libitum, under pathogen-free conditions and a controlled environment with a 12 h light–dark cycle. Syngeneic models of colorectal carcinoma were generated via subcutaneous injection of CT-26 cells (0.5 × 10^6 cells in 50 μL of serum-free RPMI-1640 medium) into the right flank of 8–12 weeks old BALB/c mice. […] All animals were euthanized 24 h after the second dose. […] To determine the anticancer efficacy of the investigated compounds, treatment started 4 d after tumor implantation, when all tumors were measurable (>25 mm^3) using a twice-weekly treatment scheme for two weeks. Tumor size was determined daily via manual caliper measurement. The tumor volume was calculated as tumor volume = (length × diameter × diameter)/2. The overall condition, shape, and activity of the animals were assessed daily. Peripheral blood was collected from the submandibular vein in K3E K3EDTA tubes (Greiner Bio-One; Kremsmünster, AUT) on ice and was analyzed for hematological parameters (red blood cells (RBCs), hemoglobin (HGB), hematocrit (HCT), red cell distribution width (RDW), mean corpuscular volume (MCV), white blood cells (WBCs), lymphocytes (LYM), monocytes (MO), granulocytes (GRA), and platelets (PLT) using a Vet ABC hematology analyzer (scil Animal Care GmbH, Viernheim, Germany). EDTA-blood was centrifuged (900g, 10 min) twice and the supernatant (EDTA-plasma) was stored at −20 °C for subsequent cytokine/chemokine analysis using a Luminex detection platform. All animal experiments were performed with humane endpoints based on Federation of European Laboratory Animal Science Associations guidelines and according to the regulations of the Ethics Committee for the Care and Use of Laboratory Animals at the Medical University Vienna (proposal number BMBWF 2023–0.122.324). Animals were euthanized upon reaching a tumor volume of >1500 mm^3, a loss in body weight (>20%), tumor ulceration or other indications of deteriorated health. Animals were euthanized via cervical dislocation.

[2] = Body weight of treated animals; assay type: in vivo, CT-26-bearing BALB/c mice; conditions: peritumoral application
Procedure: Tumor size was determined daily via manual caliper measurement. […] Animals were euthanized via cervical dislocation.

| SMILES | platelet counts (PLT) / thrombocytopenia [1] | absolute counts of white blood cells and subpopulations ([1]; i.v. twice a week for two weeks) | effect on body weights [2] |
| --- | --- | --- | --- |
| O=C1[O][Pt]2([NH][C@@H]3CCCC[C@H]3[NH]2)[O]C1=O [oxaliplatin, reference compound] | distinctly reduced platelet counts | massively lowered |  |
| COCCOCCOCCOCCNC(=O)[O][Pt-2]12([O]C(=O)CCC(=O)c3cc4cc(OC)c(OC)cc4s3)([NH2+][C@@H]3CCCC[C@H]3[NH2+]1)[O]C(=O)C(=O)[O]2 [Ox-MSA-PEG-Ca, (OC-6-34)-[(1R,2R)-1,2-cyclohexanediamino]-oxalato-[4-(5,6-dimethoxybenzo[b]thiophen-2-yl)-4-oxobutylcarboxylato]-[3,6,9,12-tetraoxatridecan-1-amino]platinum(IV)] |  |  | without negative effects on body weights |
